20 compounds from publication PMC12088000, “Design, synthesis and in silico molecular modelling studies of 2-Hydrazineyl-2-oxoethyl-4-(1H-pyrrol-1-yb) benzoate derivatives: a potent dual DHFR and ENR-reductase inhibitors with antitubercular, antibacterial and cytotoxic potential” (PLOS One, 2025) can be followed below.

Structures are written as SMILES. ≈ marks a conversion by molar mass, not a printed value.

The target of one assay is MtDHFR (Mycobacterium tuberculosis, UniProt P9WNX1). The assay can be described thus: biochemical. It is filed as biochemical.
Chain of MtDHFR (P9WNX1 whole entry): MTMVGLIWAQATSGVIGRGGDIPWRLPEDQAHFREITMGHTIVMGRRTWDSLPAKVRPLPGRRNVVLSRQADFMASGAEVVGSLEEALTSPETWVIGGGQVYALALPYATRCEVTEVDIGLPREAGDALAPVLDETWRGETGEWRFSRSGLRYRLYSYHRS
In a further assay the test system is S. aureus ATCC 29213. The assay is described as follows: Antibacterial activity, broth microdilution (S. aureus). To be noted: Staphylococcus aureus, ATCC29213, read-out: S. aureus ATCC 29213 (Gram +ve) MIC. (In general: In broth dilution the organism is exposed to a series of concentrations in liquid medium.)
A further assay concerns E. coli ATCC 25922. The assay is described as follows: Antibacterial activity, broth microdilution (E. coli). To be noted: for MIC: Escherichia coli, ATCC25922, read-out: E. coli ATCC 25922 (Gram –ve) MIC, broth microdilution; for E. coli ATCC 25922 (Gram –ve) MIC: broth microdilution.
The next assay relates to M. tuberculosis H37Rv. The assay is described as follows: Antitubercular activity, Microplate Alamar Blue test (MABA). It is filed as cell-based, Mycobacterium tuberculosis. To be noted: Mycobacterium tuberculosis, H37RV, n = 3.
In assay [1] the target is InhA enzyme from M. tuberculosis (Mycobacterium tuberculosis, UniProt P9WGR1). The assay is described as follows: InhA inhibition assay. To be noted: for inhibition at 50 µM: read-out: % InhA Inhibition at 50 µM. It counts as biochemical.
Chain of InhA enzyme from M. tuberculosis (P9WGR1 whole entry, looked up): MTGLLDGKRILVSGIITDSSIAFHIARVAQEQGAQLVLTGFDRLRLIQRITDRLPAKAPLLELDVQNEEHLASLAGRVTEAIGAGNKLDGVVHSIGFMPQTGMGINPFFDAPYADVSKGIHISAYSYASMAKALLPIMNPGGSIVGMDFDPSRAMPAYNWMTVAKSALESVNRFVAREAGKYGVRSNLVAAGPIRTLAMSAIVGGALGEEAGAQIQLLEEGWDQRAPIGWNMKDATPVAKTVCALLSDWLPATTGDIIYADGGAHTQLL
The test system of assay [2] is human lung cancer cell line A549. The assay is described as follows: MTT-based cytotoxicity. It is filed as cell-based. To be noted: MTT assay; for IC50: Homo sapiens, A549. How it is done:
The cytotoxic effects of seventeen selected molecules were assessed against the A549 human lung adenocarcinoma cell line using the MTT assay. Cisplatin served as the reference drug for comparison. Lower IC50 values indicate higher cytotoxicity.
The cytotoxic activity (IC50) of selected compounds against A549 (lung adenocarcinoma) MV cell-lines was evaluated by performing cellular conversion of MTT [3-(4,5-dimethylthiazo-2-yl)-2,5-diphenyl-tetrazolium bromide] into a formazan product. This evaluation was conducted up to a concentration of 50 mg/mL using the Promega Cell Titre 96 non-radioactive cell proliferation assay, with cisplatin serving as the positive control. Cytotoxicity is commonly quantified by determining the IC50 value, which represents the quantity of a substance that reduces the optical density of treated cells by 50% compared to untreated cells, as measured by the MTT experiment. The results are presented as IC50 values (mean ± standard error of the mean (SEM) obtained from three separate and independent measurements.
(Tetrazolium assays rely on reduction of a dye to a coloured formazan, in cell work by metabolically active cells.)

Procedure for E. coli ATCC 25922: (§1) All twenty-eight molecules were evaluated for in vitro antimicrobial activities that were assessed against Gram +ve and Gram -ve strains.
(§2) The antibacterial inhibitory effects of all compounds were assessed using the broth microdilution method, with ciprofloxacin serving as the reference medication.
Procedure for S. aureus ATCC 29213: as §1, §2

For the compound `CC(=NNC(=O)COC(=O)c1ccc(-n2cccc2)cc1)c1cccc([N+](=O)[O-])c1` [Compound 5g, 2-(2-(1-(3-nitrophenyl)ethylidene)hydrazinyl)-2-oxoethyl 4-(1H-pyrrol-1-yl)benzoate], the IC50 – broadly, the midpoint of a concentration-inhibition curve – came to 132 µM against MtDHFR and 249 ± 0.9 µg/mL (≈ 613 µM) in assay [2]. The MIC – broadly, the lowest concentration that inhibits growth of the organism – with S. aureus ATCC 29213 stood at 6.25 µg/mL (≈ 15.4 µM); in the assay on E. coli ATCC 25922, 1.6 µg/mL (≈ 3.94 µM); against M. tuberculosis H37Rv, 1.6 µg/mL (≈ 3.94 µM). Moreover, in assay [1], the inhibition (usually the drop in the measured response relative to a control, in per cent) at 50 µM turned out to be 34%.
Turning to `[H]/N=C(/N)N[C@H]1[C@H](O)[C@@H](O)[C@H](O[C@@H]2O[C@@H](C)[C@](O)(C=O)[C@H]2O[C@@H]2O[C@@H](CO)[C@H](O)[C@@H](O)[C@@H]2NC)[C@@H](N/C(N)=N\[H])[C@@H]1O` [Streptomycin, reference compound], the minimum inhibitory concentration (MIC) was 2 µg/mL (≈ 3.44 µM) in the assay on S. aureus ATCC 29213 and 0.8 µg/mL (≈ 1.38 µM) in the assay with M. tuberculosis H37Rv.
`N.N.[Cl][Pt][Cl]` [Cisplatin, reference compound]: in assay [2], the “IC50 human lung cancer cell line A549” value is 9.90 µg/mL.
Turning to `O=C1CCC(=O)N(C(=O)COC(=O)c2ccc(-n3cccc3)cc2)N1` [Compound 4d, 2-(3,6-dioxotetrahydropyridazin-1(2H)-yl)-2-oxoethyl 4-(1H-pyrrol-1-yl)benzoate], the 50% inhibitory concentration (IC50) against MtDHFR was 31 µM. The “MtDHFR inhibition, in words, compared with trimethoprim” value on MtDHFR is “greater inhibition characteristics than trimethoprim”. Moreover, the values for the MIC with S. aureus ATCC 29213, in the assay with E. coli ATCC 25922 and against M. tuberculosis H37Rv were 6.25 µg/mL (≈ 18.3 µM), 1.6 µg/mL (≈ 4.69 µM) and 1.6 µg/mL (≈ 4.69 µM), respectively.
At MtDHFR, `CC(=NNC(=O)COC(=O)c1ccc(-n2cccc2)cc1)c1cccc(O)c1` [Compound 5p, 2-(2-(1-(3-hydroxyphenyl)ethylidene)hydrazinyl)-2-oxoethyl 4-(1H-pyrrol-1-yl)benzoate] came in with an IC50 of 115 µM. Besides, the results for the MIC in the assay with S. aureus ATCC 29213, in the assay on E. coli ATCC 25922 and against M. tuberculosis H37Rv were 12.5 µg/mL (≈ 33.1 µM), 3.12 µg/mL (≈ 8.27 µM) and 3.12 µg/mL (≈ 8.27 µM), respectively.
As for `CC(=NNC(=O)COC(=O)c1ccc(-n2cccc2)cc1)c1ccc(Br)cc1Br` [Compound 5m, 2-(2-(1-(2,4-dibromophenyl)ethylidene)hydrazinyl)-2-oxoethyl 4-(1H-pyrrol-1-yl)benzoate], the IC50 against MtDHFR was 90 µM. The minimal inhibitory concentration (MIC) with S. aureus ATCC 29213 was 6.25 µg/mL (≈ 12 µM); in the assay on E. coli ATCC 25922, 0.4 to 0.8 µg/mL (≈ 0.77 to 1.54 µM); in the assay with M. tuberculosis H37Rv it was 3.12 µg/mL (≈ 6.01 µM). Also, the “E. coli ATCC 25922 (Gram –ve) MIC” value in the assay with E. coli ATCC 25922 was determined as 0.8 µg/mL.
Consider `C/C(=N\NC(=O)COC(=O)c1ccc(-n2cccc2)cc1)c1ccc([N+](=O)[O-])cc1` [Compound 5d, 2-(2-(1-(4-nitrophenyl)ethylidene) hydrazineyl) -2-oxoethyl-4-(1H-pyrrol-1-yl) benzoate], for which half-maximal inhibition against MtDHFR (IC50) required 121 µM. For the same compound, the values for the minimum inhibitory concentration (MIC) in the assay with S. aureus ATCC 29213, in the assay on E. coli ATCC 25922 and against M. tuberculosis H37Rv were 6.25 µg/mL (≈ 15.4 µM), 1.6 µg/mL (≈ 3.94 µM) and 1.6 µg/mL (≈ 3.94 µM), respectively.
Regarding `CC(=NNC(=O)COC(=O)c1ccc(-n2cccc2)cc1)c1ccc(Cl)cc1Cl` [Compound 5n, 2-(2-(1-(2,4-dichlorophenyl)ethylidene)hydrazinyl)-2-oxoethyl 4-(1H-pyrrol-1-yl)benzoate], 93 µM corresponded to half-maximal inhibition against MtDHFR (IC50). For the same compound, the values for the MIC in the assay with S. aureus ATCC 29213, with E. coli ATCC 25922 and in the assay on M. tuberculosis H37Rv were 6.25 µg/mL (≈ 14.5 µM), 0.4 to 0.8 µg/mL (≈ 0.93 to 1.86 µM) and 3.12 µg/mL (≈ 7.25 µM), respectively. For the same compound, the “E. coli ATCC 25922 (Gram –ve) MIC” value in the assay on E. coli ATCC 25922 came to 0.8 µg/mL.
At MtDHFR, `O=C(COC(=O)c1ccc(-n2cccc2)cc1)NN=Cc1ccccc1Br` [Compound 6b, 2-(2-(2-bromobenzylidene)hydrazinyl)-2-oxoethyl 4-(1H-pyrrol-1-yl)benzoate] registered an IC50 of 130 µM. Moreover, the results for the MIC in the assay on S. aureus ATCC 29213, in the assay with E. coli ATCC 25922 and in the assay with M. tuberculosis H37Rv were 3.12 µg/mL (≈ 7.32 µM), 1.6 µg/mL (≈ 3.75 µM) and 1.6 µg/mL (≈ 3.75 µM), respectively. For the same compound, the “% InhA Inhibition at 50 µM” value in assay [1] is “no inhibition”.
`CC(=NNC(=O)COC(=O)c1ccc(-n2cccc2)cc1)c1ccc(C)cc1` [Compound 5e, 2-oxo-2-(2-(1-(p-tolyl)ethylidene)hydrazinyl)ethyl 4-(1H-pyrrol-1-yl)benzoate] came in with an IC50 against MtDHFR of 118 µM. The MIC with S. aureus ATCC 29213 worked out at 12.5 µg/mL (≈ 33.3 µM); in the assay on E. coli ATCC 25922, 3.12 µg/mL (≈ 8.31 µM); against M. tuberculosis H37Rv it was 1.6 µg/mL (≈ 4.26 µM).
Compound `NC(=O)c1cnccn1` [Pyrazinamide, reference compound] yielded an MIC in the assay with M. tuberculosis H37Rv of 3.12 µg/mL (≈ 25.3 µM).
The compound `CC(=NNC(=O)COC(=O)c1ccc(-n2cccc2)cc1)c1ccc(Cl)cc1` [Compound 5c, 2-(2-(1-(4-chlorophenyl)ethylidene)hydrazinyl)-2-oxoethyl 4-(1H-pyrrol-1-yl)benzoate] came in with an IC50 on MtDHFR of 100 µM. Moreover, the MIC with S. aureus ATCC 29213 stood at 6.25 µg/mL (≈ 15.8 µM); in the assay on E. coli ATCC 25922 it was 1.6 µg/mL (≈ 4.04 µM); in the assay with M. tuberculosis H37Rv it was 1.6 µg/mL (≈ 4.04 µM).
In turn, `COc1ccc(C=NNC(=O)COC(=O)c2ccc(-n3cccc3)cc2)cc1` [Compound 6e, 2-(2-(4-methoxybenzylidene)hydrazinyl)-2-oxoethyl 4-(1H-pyrrol-1-yl)benzoate] gave an IC50 against MtDHFR of 69 µM. Besides, on MtDHFR, the “MtDHFR inhibition, in words, compared with trimethoprim” value is given as “moderate inhibition”. Moreover, the results for the minimal inhibitory concentration (MIC) with S. aureus ATCC 29213, in the assay on E. coli ATCC 25922 and against M. tuberculosis H37Rv were 6.25 µg/mL (≈ 16.6 µM), 1.6 µg/mL (≈ 4.24 µM) and 1.6 µg/mL (≈ 4.24 µM), respectively. For the same compound, the “% InhA Inhibition at 50 µM” value in assay [1] is reported as “no inhibition”.
With `COc1ccc(C(C)=NNC(=O)COC(=O)c2ccc(-n3cccc3)cc2)cc1` [Compound 5i, 2-(2-(1-(4-methoxyphenyl)ethylidene)hydrazinyl)-2-oxoethyl 4-(1H-pyrrol-1-yl)benzoate], half-maximal inhibition against MtDHFR (IC50) was put at 129 µM. Also, the MIC in the assay with S. aureus ATCC 29213 was determined as 6.25 µg/mL (≈ 16 µM); in the assay with E. coli ATCC 25922 it was 1.6 µg/mL (≈ 4.09 µM); against M. tuberculosis H37Rv, 3.12 µg/mL (≈ 7.97 µM).
On MtDHFR, `COc1cccc(C(C)=NNC(=O)COC(=O)c2ccc(-n3cccc3)cc2)c1` [Compound 5h, 2-(2-(1-(3-methoxyphenyl)ethylidene)hydrazinyl)-2-oxoethyl 4-(1H-pyrrol-1-yl)benzoate] had an IC50 of 124 µM. For the same compound, the MIC with S. aureus ATCC 29213 worked out at 12.5 µg/mL (≈ 31.9 µM); in the assay with E. coli ATCC 25922, 3.12 µg/mL (≈ 7.97 µM); with M. tuberculosis H37Rv it was 1.6 µg/mL (≈ 4.09 µM).
Consider `NNC(=O)c1ccncc1` [Isoniazid, reference compound], for which it took 1.6 µg/mL (≈ 11.7 µM) to inhibit growth in the assay with M. tuberculosis H37Rv (MIC). In assay [1], the inhibition at 50 µM was above 99%. The half-maximal inhibitory concentration (IC50) in assay [2] was above 450 µg/mL.
`CC(=NNC(=O)COC(=O)c1ccc(-n2cccc2)cc1)c1ccc(N)cc1` [Compound 5o, 2-(2-(1-(4-aminophenyl)ethylidene)hydrazinyl)-2-oxoethyl 4-(1H-pyrrol-1-yl)benzoate]: the midpoint of inhibition against MtDHFR, the IC50, lay at 90 µM. Further, the MIC worked out at 12.5 µg/mL (≈ 33.2 µM) with S. aureus ATCC 29213, 3.12 µg/mL (≈ 8.29 µM) in the assay with E. coli ATCC 25922 and 3.12 µg/mL (≈ 8.29 µM) against M. tuberculosis H37Rv.
In the case of `O=C(O)c1cn(C2CC2)c2cc(N3CCNCC3)c(F)cc2c1=O` [Ciprofloxacin, reference compound], the MIC in the assay with S. aureus ATCC 29213 and in the assay with E. coli ATCC 25922 was 2 µg/mL (≈ 6.04 µM) throughout.
For the compound `O=C(OCC(=O)n1[nH]c(=O)ccc1=O)c1ccc(-n2cccc2)cc1` [Compound 4e, 2-(3,6-dioxo-2,3-dihydropyridazin-1(6H)-yl)-2-oxoethyl 4-(1H-pyrrol-1-yl)benzoate], on MtDHFR, the midpoint of inhibition, the IC50, lay at 32 µM. Besides, at MtDHFR, the “MtDHFR inhibition, in words, compared with trimethoprim” value was “greater inhibition characteristics than trimethoprim”. Moreover, the MIC in the assay on S. aureus ATCC 29213 is 6.25 µg/mL (≈ 18.4 µM); in the assay on E. coli ATCC 25922 it was 1.6 µg/mL (≈ 4.72 µM); against M. tuberculosis H37Rv it was 1.6 µg/mL (≈ 4.72 µM).
Take `C=C1CC(=O)N(C(=O)COC(=O)c2ccc(-n3cccc3)cc2)NC1=O` [Compound 4g, 2-(4-methylene-3,6-dioxotetrahydropyridazin-1(2H)-yl)-2-oxoethyl 4-(1H-pyrrol-1-yl)benzoate]: inhibition against MtDHFR was half-maximal at 56 µM (IC50). For the same compound, the “MtDHFR inhibition, in words, compared with trimethoprim” value on MtDHFR is “moderate inhibition”. Moreover, the MIC in the assay on S. aureus ATCC 29213 turned out to be 3.12 µg/mL (≈ 8.83 µM); with E. coli ATCC 25922, 0.8 µg/mL (≈ 2.26 µM); with M. tuberculosis H37Rv, 1.6 µg/mL (≈ 4.53 µM).
